Data as given in patent EP0760376A1, “PEPTIDES INHIBITING PHOSPHOLIPASE C” (Kyowa Hakko Kogyo Co., Ltd., priority 1995, dated 1996).
Converted amounts (≈) assume the structure as drawn. Square brackets hold non-standard residues; d marks the D form. Peptide text beside a SMILES is read from it. * marks the point of attachment. 12Ado = NCCCCCCCCCCCC(=O)O; Aun = NCCCCCCCCCCC(=O)O; Butyryl = CCCC(=O)*

Columns and labels:
[1] = tested on: Bacillus subtilis No. 10707; type: cell-based; settings: No. 10707, pH 7
Description: (§1) The antibacterial activity was determined by the agar dilution method using a medium (pH 7.0) which comprises 3 g/l Bacto-tryptone (Difco Laboratories), 1 g/l meat extract, 1 g/l glucose and 16 g/l agar.

PLC-γ1 = molecular target: T1, PLC-γ1 (Bos taurus, UniProt P08487); assay: PLC-inhibiting activity (release of [3H]inositol phosphate from [3H]PIP2); type: biochemical, bovine; settings: 37°C, 10 minutes, pH 6.0, read-out: Inhibition rate (%)
T1 construct: A sample of PLC-γ1 was prepared from bovine thymus; from tissue; host or cells: bovine thymus
T1 sequence (P08487 1-1291): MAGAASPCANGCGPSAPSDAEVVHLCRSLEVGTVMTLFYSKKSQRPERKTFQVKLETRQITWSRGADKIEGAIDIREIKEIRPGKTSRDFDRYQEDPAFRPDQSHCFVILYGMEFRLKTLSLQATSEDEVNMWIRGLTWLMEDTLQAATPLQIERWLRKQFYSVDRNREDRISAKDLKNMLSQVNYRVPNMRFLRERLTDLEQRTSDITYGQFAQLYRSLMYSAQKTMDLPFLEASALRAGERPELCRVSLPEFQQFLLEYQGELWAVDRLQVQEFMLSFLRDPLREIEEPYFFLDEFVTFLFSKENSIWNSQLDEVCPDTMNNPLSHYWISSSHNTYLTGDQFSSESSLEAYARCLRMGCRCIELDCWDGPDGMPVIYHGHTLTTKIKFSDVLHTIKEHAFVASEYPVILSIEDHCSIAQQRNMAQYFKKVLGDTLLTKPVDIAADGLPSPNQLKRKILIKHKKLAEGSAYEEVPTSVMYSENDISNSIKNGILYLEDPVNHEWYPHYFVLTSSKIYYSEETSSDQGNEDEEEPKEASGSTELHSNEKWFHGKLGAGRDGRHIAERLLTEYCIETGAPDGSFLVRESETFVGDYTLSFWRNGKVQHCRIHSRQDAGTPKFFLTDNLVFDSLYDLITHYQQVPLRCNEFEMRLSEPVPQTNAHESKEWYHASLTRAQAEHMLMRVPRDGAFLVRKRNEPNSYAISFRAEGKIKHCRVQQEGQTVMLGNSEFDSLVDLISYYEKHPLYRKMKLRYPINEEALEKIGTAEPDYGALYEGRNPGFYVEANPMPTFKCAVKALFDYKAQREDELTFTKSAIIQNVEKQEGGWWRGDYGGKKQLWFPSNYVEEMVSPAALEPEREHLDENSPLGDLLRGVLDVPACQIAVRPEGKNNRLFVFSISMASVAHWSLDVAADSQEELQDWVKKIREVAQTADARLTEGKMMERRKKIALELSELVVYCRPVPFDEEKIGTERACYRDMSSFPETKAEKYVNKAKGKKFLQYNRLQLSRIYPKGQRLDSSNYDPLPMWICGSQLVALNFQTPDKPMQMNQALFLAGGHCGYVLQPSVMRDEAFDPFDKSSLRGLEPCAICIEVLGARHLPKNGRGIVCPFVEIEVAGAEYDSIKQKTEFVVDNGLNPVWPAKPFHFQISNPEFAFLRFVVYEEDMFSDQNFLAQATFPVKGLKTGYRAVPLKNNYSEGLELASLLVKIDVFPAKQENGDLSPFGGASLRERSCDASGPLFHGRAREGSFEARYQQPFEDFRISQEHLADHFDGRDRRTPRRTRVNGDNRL
Description: A sample of PLC-γ1 was prepared from bovine thymus according to the method described in Y. Honma et al., Biochem. J., 269, 13 (1990). A solution having the composition shown in Table 2 below was prepared on ice and was heated to 37°C to start reaction. After incubation for 10 minutes, 2 ml of a chloroform/methanol mixture (2:1, v/v) was added thereto to stop the reaction. The resulting inositol phosphate was extracted with 0.5 ml of 1 N hydrochloric acid. The extract was separated into two liquid phases by centrifugation (2000 x g, 3 minutes), and the amount of ^3H contained in the supernatant (0.7 ml) was measured with a scintillation counter. Table 2 [table] The inhibition rate (X) was calculated according to the following equation: X (%) = (A-C) / (B-C) x 100 [formula] where A is the obtained value of specific radioactivity, B is the value of specific radioactivity obtained when the same amount of water was added instead of the aqueous solution of the test peptide, and C is the value of specific radioactivity obtained when the same amount of water was added instead of the sample and the aqueous solution of the test peptide.

[2] = tested on: Proteus vulgaris ATCC 6897; type: cell-based; settings: ATCC 6897, pH 7
Description: as §1

[3] = tested on: Staphylococcus aureus ATCC 6538P; type: cell-based; settings: pH 7
Description: as §1

[4] = tested on: Pseudomonas aeruginosa Bin H No. 1; type: cell-based; settings: Bin H No. 1, pH 7
Description: as §1

[5] = tested on: Enterococcus hirae ATCC 10541; assay: Antibacterial activity, agar dilution method; type: cell-based; settings: pH 7
Description: as §1

[6] = tested on: Klebsiella pneumoniae ATCC 10031; assay: Antibacterial activity, agar dilution method; type: cell-based; settings: medium pH 7.0
Description: as §1

[7] = tested on: Candida albicans ATCC 10231; type: cell-based; settings: ATCC 10231, pH 7
Description: as §1

KMS-4 cells = assay: Cell growth-inhibiting activity (BrdU incorporation, cell growth detection kit); type: cell-based; settings: Concentration 1 µM, culturing with peptide for 17 hours
Description: The cell growth-inhibiting activity was determined using a cell growth detection kit (Amersham) in the following manner. KMS-4 cells [M. Nanba et al, International Journal of Cancer, 32, 697 (1983)] were suspended in DMEM medium (Nissui Pharmaceutical Co., Ltd.) containing 10% fetal calf serum at a density of 1-2 x 10^4 cells/ml, and 1 ml of the cell suspension was put into each well of a 24-well plate (Corning Inc.). The cells were cultured in a CO2 incubator (37°C, 5% CO2) for 2 days. Then, the medium was replaced with a fresh DMEM medium containing 10% fetal calf serum, and the test peptide was added thereto, followed by culturing for 17 hours. The medium was replaced with a serum-free DMEM medium, and 0.5 ml of a solution prepared by diluting labeled reagent 5-bromo-2'-deoxyuridine (BrdU) and 5-fluoro-2'-deoxyuridine (FdU) (10:1) 1000-fold with the same medium was added to each well, followed by culturing for 2 hours. Then the medium was removed, and the cells were immobilized with an acetic acid/ethanol solution. The immobilized cells were stained according to the method for the cell growth detection kit of Amersham, and then further stained with a 1% Giemsa solution (Merck & Co., Inc.). The number of cells which incorporated BrdU and the total number of cells within one field of vision of a microscope (approximately 200 cells) were determined, and the proportion (%) of stained cells per field of vision was calculated. The above procedure was repeated 10 times, and the average value thereof was defined as the cell growth activity (%). The cell growth-inhibiting activity was calculated in the following manner. That is, the cell growth inhibition rate was calculated according to the following equation: X (%) = (1-B/A) x 100 [formula] where A is the growth activity when no peptide was added, and B is the growth activity when the test peptide was added.

| SMILES | MIC (µg/ml) BS [1] [µg/mL] | inhibition at 23 µM (PLC-γ1; Concentration 23 µM (aqueous solution of test peptide provided for the test)) [%] | MIC (µg/ml) PV [2] [µg/mL] | MIC (µg/ml) SA [3] [µg/mL] | MIC (µg/ml) PA [4] [µg/mL] | MIC (µg/ml) EH [5] [µg/mL] | inhibition at 116 µM (PLC-γ1; Concentration 116 µM (aqueous solution of test peptide provided for the test)) [%] | MIC (µg/ml) KP [6] [µg/mL] | MIC (µg/ml) CA [7] [µg/mL] | Inhibition rate (%) (KMS-4 cells) |
| --- | --- | --- | --- | --- | --- | --- | --- | --- | --- | --- |
| CCCC(=O)N[C@@H](CC(C)C)C(=O)N[C@@H](Cc1ccc(O)cc1)C(=O)N[C@@H](CCCNC(=N)N)C(=O)N[C@@H](CCCCN)C(=O)N[C@@H](CCSC)C(=O)N[C@@H](CCCNC(=N)N)C(=O)N[C@@H](CC(C)C)C(=O)N[C@@H](CCCNC(=N)N)C(=O)N[C@@H](Cc1ccc(O)cc1)C(=O)N1CCC[C@H]1C(=O)N[C@H](C(=O)NCCCCCCCCCCCC(N)=O)C(C)C [Compound (I-9), C3H7CO-Leu-Tyr-Arg-Lys-Met-Arg-Leu-Arg-Tyr-Pro-Val-NH-(CH2)11CONH2] (Butyryl-LYRKMRLRYPV[12Ado]-NH2) | 50 (≈ 28.4 µM) | 73 | 100 (≈ 56.8 µM) | 200 (≈ 114 µM) | 200 (≈ 114 µM) | – | – | – | – | – |
| CSCC[C@H](NC(=O)[C@H](CCCCN)NC(=O)[C@H](CCCNC(=N)N)NC(=O)[C@H](Cc1ccc(O)cc1)NC(=O)[C@H](CC(C)C)NC(C)=O)C(=O)N[C@@H](CCCNC(=N)N)C(=O)N[C@@H](CC(C)C)C(=O)N[C@@H](CCCNC(=N)N)C(=O)N[C@@H](Cc1ccc(O)cc1)C(=O)N1CCC[C@H]1C(=O)N[C@H](C(=O)NCCCCCCCCCCC(N)=O)C(C)C [Compound (I-6), CH3CO-Leu-Tyr-Arg-Lys-Met-Arg-Leu-Arg-Tyr-Pro-Val-NH-(CH2)10CONH2] (Ac-LYRKMRLRYPV[Aun]-NH2) | 43 (≈ 25 µM) | – | 43 (≈ 25 µM) | 171 (≈ 99.5 µM) | 85 (≈ 49.4 µM) | 171 (≈ 99.5 µM) | 85 | 43 (≈ 25 µM) | 171 (≈ 99.5 µM) | 57 |
